# Test results taken from PMC8060220, “Comparative study of hyperpure chlorine dioxide with two other irrigants regarding the viability of periodontal ligament stem cells” (Clinical Oral Investigations, 2020).
# Marks after values point to notes of the source that are not given here.
# Experiments:
# [1] = tested on: PDLSCs; assay: WST-1 viability assay, 10 min treatment; format: cell-based, human; conditions: P3 and P7, 48 h
# Description: (§1) This assay is dedicated to measuring the viability of PDLSCs. In 96-well culture plates, 10,000 PDLSCs were seeded. After 24 h, samples were treated with the irrigative compounds, and final concentrations were H2O2 0.3%, CHX 0.02%, and ClO2 0.0025% and 0.00025% solutions in 4-4 parallel wells. After 10 min, all the irrigative agents were removed and the samples were washed three times with normal growth medium, simulating the diluting effect of saliva in the oral cavity during the periodontal treatments. Forty-eight hours after the treatments, the cell viability was measured by the cell proliferation reagent containing water-soluble tetrazolium salt, WST-1 [2-(4-Iodophenyl)-3-(4-nitrophenyl)-5-(2,4-disulfophenyl)-2H-tetrazolium] (Roche). This assay determines mitochondrial dehydrogenase enzyme activity resulting water-soluble cleavage product. The WST-1 reagent was used at 1:20 dilution and incubation time was 2 h at 37 °C. Absorbance was measured at 450 nm with a reference wavelength of 655 nm by a microplate reader (BIO-RAD Model 3550). Background control values were determined in wells seeded with no cells. Each value represents the average of minimum 3 parallel measurements.
# [2] = tested on: equine fibroblasts; conditions: cited from earlier work
# [3] = tested on: CD105; assay: Immunocytochemistry of stem cell marker CD105; format: cell-based, human; conditions: 48 h
# Description: (§2) PDLSC cultures grown in 8 chamber slides (Nunc Lab-Tek) were treated with the antiseptic agents similar to the viability studies. After 48 h, treated and untreated cell cultures were fixed in 4% PFA in PBS for 20 min at room temperature (RT). To block non-specific binding, 5% goat serum in PBS was applied for 1 h at RT. Then cell cultures were incubated with the primary antibodies diluted 1:100 with 2.5% goat serum in PBS overnight at 4 °C. The applied primary antibodies were the following: anti-STRO-1 antibody (type mouse IgM)—a generous gift from Prof. Richard Oreffo (University of Southampton, UK); anti-CD90 (Thy-1; type mouse IgG) and the anti-CD105 (endoglin; type mouse IgM) antibodies purchased from Calbiochem and Santa Cruz Biotechnology, respectively. Goat anti-mouse IgM and IgG type secondary antibodies conjugated with Alexa Fluor 488 (Molecular Probes) were diluted with 2.5% goat serum in PBS in 1:2000 and 1:1000 respectively. The incubation time was 60 min at RT. Finally, the walls of the chambers were removed and the slides were mounted with ProLong Gold antifade reagent with DAPI (Molecular Probes). Immunocytochemically labeled cell cultures were investigated under a fluorescence microscope (Nikon Eclipse E600), the photos were taken by a Retiga 2000R digital CCD camera (QImaging), and analyzed by the Image Pro software (Media Cybernetics). Free macros for automated fluorescence analysis of image processing software FIJI/ImageJ were applied to evaluate immunostaining of stem cell markers. Each test point represents 3 × 3 reading of the samples.
# [4] = tested on: CD90; assay: Immunocytochemistry of stem cell marker CD90; format: cell-based, human; conditions: 48 h
# Description: as §2
# [5] = tested on: STRO-1; assay: Immunocytochemistry of stem cell marker STRO-1; format: cell-based, human; conditions: 48 h
# Description: as §2
# [6] = tested on: PDLSC cultures; assay: Morphological study, phase-contrast microscopy; format: cell-based, human; conditions: for cell morphology and cell number under phase-contrast microscope: 48 h after treatment, 0.3% H2O2, 0.02% CHX, 0.0025% or 0.00025% ClO2
# Excerpt: Cellular morphology was observed under an inverted phase-contrast microscope (Nikon TMS). Photomicrographs were taken applying a high-performance CCD camera (COHU) and the Scion image software.
# [7] = tested on: PDLSCs; assay: WST-1 test, concentration-response study; format: cell-based, human; conditions: 48-h incubation, 50% viable cells
# Description: (§3) To evaluate the concentration-dependent effects of the 3 antiseptic agents (H2O2, CHX, and ClO2), 9 different dilutions of each agent were prepared with growth medium (from 3.91 × 10^−6 to 10^−3 M, by 1:2 dilution in each step). As ClO2 is photosensitive and volatile, its dilution series were made in dark Eppendorf tubes which were opened only for the inevitably required time. After a 48-h-long incubation, cell viability was assessed by WST-1 test and impedimetric measurement, respectively (see below). The […] (IC50) values corresponding to the 50% viable cells or 0.5 normalized CI were determined from the concentration-effect curves in the case of the two methods, respectively.
# as §1
# [8] = tested on: PDLSCs; assay: Impedimetry (xCELLigence), concentration-response study; format: cell-based, human; conditions: 48-h incubation, 0.5 normalized CI
# Description: as §3
# The effect of irrigative agents on the viability of the PDLSC cells was assessed using the xCELLigence SP System (Roche Applied Science, Indianapolis, IN, USA), which monitors the cellular events by measuring electrical impedance across interdigitating gold microelectrodes integrated on the bottom of tissue culture plates (E-plates). The detected impedance is influenced by the viability and morphology of the attached cells on the surface of the electrodes. The presence of cells due to their insulating plasma membranes constrain the electrical current and lead to an increase in the electrode impedance. The impedance depends on the number of the attached cells and on the dimensional change of the attached cells on the electrodes. More cells attached to the electrode or spreading cause a larger increase in the impedance. The change in impedances represented as “cell index” (CI) which is a relative and dimensionless value. Briefly, the experimental protocol was as follows: to register the background value, 100 μL of culture medium was added to each well and impedance was recorded for 1 h to gain constant background curves of impedance. […] The viability of the PDLSC was monitored for 96 h. Normalized impedance to the control calculated by the integrated software (RTCA 1.2—Roche Applied Science, Indianapolis, IN, USA) was used for the statistical evaluation. […]
# [9] = tested on: gingival fibroblasts; parameters: method as in PMID 1920010; conditions: exposure of dental root surfaces to CHX (0.12%); cited from earlier work
# [10] = tested on: gingival fibroblasts; parameters: method as in PMID 10632519; conditions: cited from earlier work
# [11] = tested on: PDLSCs; assay: Impedimetry (xCELLigence), 10 min treatment, time course and viability; format: cell-based, human; conditions: for long-term (2–120 h) effect on normalized CI / short-term (0–2 h) effect on normalized CI: 0.0025% and 0.00025% ClO2, 10 min treatment; for repopulation in long-term impedimetric analysis: 5-day-long period after treatment; for viability of PDLSC cultures, impedimetry: 48 h; for cells killed during the first 30 min: ClO2 depending on the concentration applied (0.0025%, 0.00025%); for normalized Cell Index (CI) two days after the treatment: 37 °C
# Description: The effect of irrigative agents on the viability of the PDLSC cells was assessed using the xCELLigence SP System (Roche Applied Science, Indianapolis, IN, USA), which monitors the cellular events by measuring electrical impedance across interdigitating gold microelectrodes integrated on the bottom of tissue culture plates (E-plates). The detected impedance is influenced by the viability and morphology of the attached cells on the surface of the electrodes. The presence of cells due to their insulating plasma membranes constrain the electrical current and lead to an increase in the electrode impedance. The impedance depends on the number of the attached cells and on the dimensional change of the attached cells on the electrodes. More cells attached to the electrode or spreading cause a larger increase in the impedance. The change in impedances represented as “cell index” (CI) which is a relative and dimensionless value. Briefly, the experimental protocol was as follows: to register the background value, 100 μL of culture medium was added to each well and impedance was recorded for 1 h to gain constant background curves of impedance. In the following step, PDLSCs were seeded in 10^5 cells/mL density. After 24-h incubation, they were treated with the solutions of the investigated irrigative compounds (H2O2, CHX, and ClO2) for 10 min and the medium served as reference. […] Normalized impedance to the control calculated by the integrated software (RTCA 1.2—Roche Applied Science, Indianapolis, IN, USA) was used for the statistical evaluation. Each data point represents the mathematical average of three parallels.
# [12] = tested on: PDL cells; parameters: method as in PMID 1507037; conditions: 0.2 to 2.0% CHX pretreatment of the root surface; cited from earlier work
# [13] = long incubation time; cited from earlier work
# [14] = tested on: bacteria; parameters: method as in PMID 24060558, PMID 23529300; conditions: direct antibacterial and biofilm-dissolving effects; cited from earlier work
# [15] = parameters: method as in ref S1; conditions: ref S1, cited from earlier work
# [16] = tested on: Escherichia coli; parameters: method as in ref 1 (supplement); conditions: 1 µm diameter cylindrical bacterium; c0 = 300 mg/L (4.45 mM); formula (C), pig bladder parameters; ref 1 (supplement); cited from earlier work
# [17] = tested on: human gingival fibroblasts; parameters: method as in PMID 1962413; conditions: cited from earlier work
# [18] = 0.3% H2O2, 0.02% CHX, higher ClO2 concentration (0.0025%)
# [19] = P3, 0.02% CHX, 0.0025% (1/1) ClO2
# [20] = P7, 0.02% CHX, 0.0025% (1/1) ClO2
# [21] = P3 and P7, 0.3% H2O2, 0.02% CHX
# [22] = impedimetric results, 0.02% CHX
SMILES,"viability of PDLSC cultures, WST-1 [1, 18]","CD105 Fluo. int. [%] Control = 100% [3, 19]","CD105 Fluo. int. [%] Control = 100% [3, 20]","CD90 Fluo. int. [%] Control = 100% [4, 19]","CD90 Fluo. int. [%] Control = 100% [4, 20]","STRO-1 Fluo. int. [%] Control = 100% [5, 19]","STRO-1 Fluo. int. [%] Control = 100% [5, 20]",cell morphology and cell number under phase-contrast microscope [6],IC50 [7] [µM],"long-term (2–120 h) effect on normalized CI ([11]; 0.3% H2O2, 0.02% CHX)","short-term (0–2 h) effect on normalized CI ([11]; 0.3% H2O2, 0.02% CHX)",repopulation in long-term impedimetric analysis [11],"viability of PDLSC cultures, impedimetry [11, 21]","cells killed during the first 30 min [11, 22]",IC50 [8] [µM],other results
"[H]/N=C(\N/C(=N/[H])NCCCCCCNC(=N)NC(=N)Nc1ccc(Cl)cc1)Nc1ccc(Cl)cc1 [CHX, chlorhexidine]",significantly deteriorating effects,218.18*** %,104.81%,199.23*** %,30.98*** %,130.52* %,86.02%,number of cells dramatically decreased,16.6,retained their short-term cytotoxic effects,rapid decrease of normalized CI profile,no sign of repopulation,significantly deteriorating effects,about 70%,,"concentration with 50% of survival [2]: 0.005%; IC50 ([7]; Homo sapiens, 48 h): 29.5 µM; IC50 ([8]; Homo sapiens, 48 h): 36.4 µM; subsequent attachment of gingival fibroblasts [9]: significantly inhibited; low concentration shown to be toxic, reducing production of collagen and non-collagen proteins [10]: 0.0001%; cells killed in 5 min [11, 22]: 50%; attachment of PDL cells onto the root surface and their morphology [12]: adversely altered"
"OO [H2O2, hydrogen peroxide]",complete lack of any viable cells,,,,,,,number of cells dramatically decreased,209,retained their short-term cytotoxic effects,rapid decrease of normalized CI profile,,complete lack of any viable cells,,327,"state of cultures at fixation for immunocytochemistry ([6]; 48 h after treatment with H2O2): all the cells were dead and detached from the slide; concentrations at which in vitro sporicide effects are evident [13]: 10–30%; time to kill all the cells ([11]; impedimetric results, 0.3% H2O2): ≤ 1 min"
"[O][Cl+][O-] [ClO2, chlorine dioxide]",no effect,213.90*** %,55.46*** %,83.07%,97.74%,216.52*** %,120.43* %,did not provoke morphological changes,638,consistent increase of the curves,significantly less toxic compared to the other two antiseptic substances,proliferation of the remaining cell population can compensate cell loss,,20–30%,795,"viability of PDLSC cultures, WST-1 ([1]; lower ClO2 concentration (0.00025%)): unequivocally neutral; toxicity compared with CHX ([2]; equine fibroblasts): less toxic to equine fibroblasts than CHX; CD105 Fluo. int. [%] Control = 100% ([3]; P3, 0.00025% (1/10) ClO2): 127.80* %; CD105 Fluo. int. [%] Control = 100% ([3]; P7, 0.00025% (1/10) ClO2): 15.74*** %; CD90 Fluo. int. [%] Control = 100% ([4]; P3, 0.00025% (1/10) ClO2): 159.23** %; CD90 Fluo. int. [%] Control = 100% ([4]; P7, 0.00025% (1/10) ClO2): 54.92*** %; times lower concentration of ClO2 needed to evoke the same or even stronger effect than that of CHX [14]: approximately 10 times; STRO-1 Fluo. int. [%] Control = 100% ([5]; P3, 0.00025% (1/10) ClO2): 145.78** %; STRO-1 Fluo. int. [%] Control = 100% ([5]; P7, 0.00025% (1/10) ClO2): 114.69%; diffusion coefficient D(pig bladder) ([15]; cellular pig bladder tissue): 1.8×10^–6 cm^2s^–1; diffusion coefficient D(gelatine) ([15]; unstructured gelatine gel medium): 2.4×10^–6 cm^2s^–1; normalized Cell Index (CI) two days after the treatment ([11]; 10 minute treatment in 2.5 mg/l ClO2 solution): ≈ 0.8; normalized Cell Index (CI) two days after the treatment ([11]; 10 minute treatment in 25 mg/l ClO2 solution): about 0.5; viability of PDLSC cultures, impedimetry ([11]; P3, higher ClO2 concentration (0.0025%)): significant inhibitory effect; viability of PDLSC cultures, impedimetry ([11]; P3 and P7, lower ClO2 concentration (0.00025%)): unequivocally neutral; killing time (TKILL) [16]: 4.4 ms; LD50 ([17]; human gingival fibroblasts): 0.16 mM; apoptotic responses ([17]; low concentrations of ClO2): did not induce apoptotic responses"
